From patent US20220259164A1, “USE OF AMINOTHIOL COMPOUNDS AS CEREBRAL NERVE OR HEART PROTECTIVE AGENT” (SHANGHAI KECHOW PHARMA, INC., priority 2019, published 2022)
Values joined by “and” are separate entries in the source; they are usually repeats but may differ in a detail not shown here. Identical values can stand only once.

How the values were obtained:
[1] = test system: rat myocardial infarction model (coronary ligation 30 min, reperfusion); experiment: Myocardial infarction model: myocardial enzyme LDH in serum; format: in vivo; details: isosorbide mononitrate injection i.v. 1 mg/kg
Method: 1. The rats were grouped and administered according to the following methods (2) Compound B (i.v.) at 100 mg/kg (3) Compound A (i.v.) at 100 mg/kg (4) Compound A (oral) at 500 mg/kg (5) Isosorbide mononitrate injection (i.v.) at 1 mg/kg (equivalent to clinical equivalent dose). There were 10 rats in each group, and the rats were administered intravenously immediately after 30 min of ischemia and reperfusion, i.v. 10% 1 min+i.v. drip 90% 30 min. The administration volume was 2 ml/rat. Compound A (oral) at 500 mg/kg was administered intragastrically 2 h after reperfusion when the animal was awake, and the administration volume was 10 ml/kg. Note: Compounds A and B used in this example were in the form of hydrochloride salts thereof. Given intraperitoneal injection of 3% sodium pentobarbital at 60 mg/kg for general anesthesia, the rats were fixed on an operating table in the supine position. The surgical field of the anterolateral chest was depilated and routinely disinfected. The skin and muscular layer were cut open, purse-string suture was performed on the muscular layer, the chest was opened on the left at the fourth intercostal space, and the heart was pulled out with a ring-shaped retractor. At the position of the anterior descending coronary artery 3-4 mm below the left atrial appendage, a 6/0 damage-free silk thread was threaded, and a nylon thread with a diameter of 1.6 mm was juxtaposed and ligated together with the anterior descending coronary artery, while the other end was left outside the body for later use. The heart was placed back into the chest cavity, the air in the chest cavity was emptied, and the chest cavity was closed. 30 min after ligation, the nylon thread was carefully removed for reperfusion. Compared with the normal lead II electrocardiogram (ECG-II), ST segment elevation in ECG-II by 0.1 mV or more 30 min after coronary artery ligation was regarded as successful ischemia. […] Blood was collected from the rats through the abdominal aorta and centrifuged at 3000 rpm×10 min at 4° C., and the upper serum was taken to determine LDH by enzyme-linked immunosorbent assay.

[2] = test system: rat myocardial infarction model (coronary ligation 30 min, reperfusion); experiment: Myocardial infarction model: myocardial infarction range (TTC staining); format: in vivo; details: isosorbide mononitrate injection i.v. 1 mg/kg
Method: 1. The rats were grouped and administered according to the following methods (2) Compound B (i.v.) at 100 mg/kg (3) Compound A (i.v.) at 100 mg/kg (4) Compound A (oral) at 500 mg/kg (5) Isosorbide mononitrate injection (i.v.) at 1 mg/kg (equivalent to clinical equivalent dose). There were 10 rats in each group, and the rats were administered intravenously immediately after 30 min of ischemia and reperfusion, i.v. 10% 1 min+i.v. drip 90% 30 min. The administration volume was 2 ml/rat. Compound A (oral) at 500 mg/kg was administered intragastrically 2 h after reperfusion when the animal was awake, and the administration volume was 10 ml/kg. Note: Compounds A and B used in this example were in the form of hydrochloride salts thereof. Given intraperitoneal injection of 3% sodium pentobarbital at 60 mg/kg for general anesthesia, the rats were fixed on an operating table in the supine position. The surgical field of the anterolateral chest was depilated and routinely disinfected. The skin and muscular layer were cut open, purse-string suture was performed on the muscular layer, the chest was opened on the left at the fourth intercostal space, and the heart was pulled out with a ring-shaped retractor. At the position of the anterior descending coronary artery 3-4 mm below the left atrial appendage, a 6/0 damage-free silk thread was threaded, and a nylon thread with a diameter of 1.6 mm was juxtaposed and ligated together with the anterior descending coronary artery, while the other end was left outside the body for later use. The heart was placed back into the chest cavity, the air in the chest cavity was emptied, and the chest cavity was closed. 30 min after ligation, the nylon thread was carefully removed for reperfusion. Compared with the normal lead II electrocardiogram (ECG-II), ST segment elevation in ECG-II by 0.1 mV or more 30 min after coronary artery ligation was regarded as successful ischemia.

[3] = test system: cisplatin-induced nephrotoxicity in SD rats; experiment: Cisplatin-induced nephrotoxicity in SD rats: blood creatinine and urea nitrogen; format: in vivo, rat; details: for Creatinine / Urea nitrogen: whole blood day 5, individual rats
Method: Healthy male SPF grade SD rats (body weight 250-300 g) were selected. Control group: PBS […] Cisplatin+compound B group: 5 mg/kg i.p.+compound B at 200 mg/kg i.p., with compound B being administered 30 min prior to cisplatin administration Cisplatin+amifostine group: 5 mg/kg i.p.+AMI at 200 mg/kg i.p., with AMI being administered 30 min prior to cisplatin administration Cisplatin+compound A group: 5 mg/kg i.p.+compound A at 800 mg/kg p.o., with compound A being administered 30 min prior to cisplatin administration (1) The SD rats used in the experiment were weighed, labeled, and evenly divided into 5 groups, with 3 SD rats in each group. (2) The compound B, compound A, and AMI groups were respectively administered at the planned concentrations. […] (3) The rats were weighed and recorded daily, and on day 5, blood was taken from the intraocular canthus of the SD rats and placed in an anticoagulant tube.

[4] = Body weight of cisplatin-induced SD rats; format: in vivo, rat
Method: Healthy male SPF grade SD rats (body weight 250-300 g) were selected. Cisplatin+compound B group: 5 mg/kg i.p.+compound B at 200 mg/kg i.p., with compound B being administered 30 min prior to cisplatin administration Cisplatin+amifostine group: 5 mg/kg i.p.+AMI at 200 mg/kg i.p., with AMI being administered 30 min prior to cisplatin administration Cisplatin+compound A group: 5 mg/kg i.p.+compound A at 800 mg/kg p.o., with compound A being administered 30 min prior to cisplatin administration (1) The SD rats used in the experiment were weighed, labeled, and evenly divided into 5 groups, with 3 SD rats in each group. (2) The compound B, compound A, and AMI groups were respectively administered at the planned concentrations. […] (3) The rats were weighed and recorded daily, and on day 5, blood was taken from the intraocular canthus of the SD rats and placed in an anticoagulant tube.

[5] = test system: SD rat cerebral ischemia reperfusion injury model (MCAO); experiment: TTC staining and cerebral infarction area in rat ischemic stroke model (MCAO); format: in vivo; details: for Cerebral infarction area: individual rats
Method: Healthy male SPF grade SD rats (body weight 250-300 g) were selected. (1) The rats were anesthetized, the skin on the neck was prepared, and the body temperature was maintained at 37±0.5° C. (2) A midline neck incision was made to expose the right common carotid artery, internal carotid artery and external carotid artery. A 6-0 silk thread was used to ligate the distal end of the external carotid artery at 4 mm from the bifurcation of the common carotid artery, another 6-0 silk thread was inserted at the external carotid artery, and a slipknot was tied near the bifurcation of the common carotid artery. (3) An arterial clamp was used to clamp the common carotid artery. A small opening was cut on the external carotid artery at 3 mm from the bifurcation of the common carotid artery, and a 0.33 mm diameter nylon thread with a treated head end was inserted through the small opening, entered the internal carotid artery, and was inserted inward to the middle cerebral artery, wherein the insertion depth of the nylon thread was about 16±1 mm from the bifurcation of the common carotid artery. (4) The thread embolism was removed 90 min after ischemia, the proximal end of the external artery was ligated with a 6-0 silk thread, the neck wound was sutured with a 3-0 silk thread, the wound was disinfected with povidone iodine, the rats were placed on a heating pad, and after being awake, they were placed in a constant temperature rearing box for rearing. […] After the rats were anesthetized, the brain tissues were taken from the rats, placed in a refrigerator and frozen at -20° C. for 30 min. 1% TTC (W/V) was prepared with PBS and placed in a water bath at 37° C. until the TTC was dissolved, and the frozen brain tissue was sliced, placed in 10 ml of the TTC solution and incubated at 37° C. for 10 min. The brain slices were turned from time to time to make the tissue evenly stained. Normal brain tissue was bright red after staining, whereas the infarction region was pale white in color or light white in a black and white image. In addition, a software was used to measure and statistically analyze the infarction area. In a manner same as in Example 1, experimental animals were selected, except that the experiment was divided into seven groups (i.e., groups […], and G, among which groups C, D, and E were given different dosages of administration from Example 1, group F was given edaravone, and group G was given amifostine).

[6] = test system: SD rat cerebral ischemia reperfusion injury model (MCAO); experiment: Neurobehavioral evaluation (5-point Longa/Bederson score) in rat ischemic stroke model (MCAO); format: in vivo; design: key to Neurological function score After modeling: Longa/Bederson 5-point scale (0-4); higher = more severe deficit; details: for Neurological function score After modeling: individual rats
Source text: Healthy male SPF grade SD rats (body weight 250-300 g) were selected. […] (2) A midline neck incision was made to expose the right common carotid artery, internal carotid artery and external carotid artery. A 6-0 silk thread was used to ligate the distal end of the external carotid artery at 4 mm from the bifurcation of the common carotid artery, another 6-0 silk thread was inserted at the external carotid artery, and a slipknot was tied near the bifurcation of the common carotid artery. (3) An arterial clamp was used to clamp the common carotid artery. […] (4) The thread embolism was removed 90 min after ischemia, the proximal end of the external artery was ligated with a 6-0 silk thread, the neck wound was sutured with a 3-0 silk thread, the wound was disinfected with povidone iodine, the rats were placed on a heating pad, and after being awake, they were placed in a constant temperature rearing box for rearing. […] The experimental animals were scored for signs of neurological function deficit before and after modeling. The scoring standard was given by reference to the 5-point system of Longa and Bederson. The scoring was performed 24 h after the animals were awake from anesthesia. The higher the score, the more severe the behavioral disorder of the animals. 0 point: No nerve damage symptoms […] Inability to fully extend the contralateral front paw […] Turning in a circle to the opposite side […] Falling over to the opposite side 4 points: Inability to walk spontaneously, and loss of consciousness In a manner same as in Example 1, experimental animals were selected, except that the experiment was divided into seven groups (i.e., groups […], and G, among which groups C, D, and E were given different dosages of administration from Example 1, group F was given edaravone, and group G was given amifostine).

[7] = test system: radiation lung injury in C57 male mice; experiment: Protective effect on radiation lung injury (HE staining of lung); format: in vivo; details: 517 mpk i.p. 30 min before 17 Gy right lung irradiation; months 2, 4, 6
Method: C57 male mice were randomly divided into 4 groups, namely a blank control group, an irradiation group, a compound B (TFA) irradiation group, and an AMI irradiation group, respectively. The mode of administration for each group was an intraperitoneal injection, 30 min before irradiation. The dosage of administration was 517 mpk, and the irradiation dose to the right lung was 17 Gy. […] Lung tissues were taken at months 2, 4, and 6 for HE staining

[8] = test system: radiation intestinal injury in C57 male mice; experiment: Protective effect on radiation intestinal injury (HE staining of small intestine); format: in vivo; details: 517 mpk i.p. 30 min before 16 Gy abdominal irradiation; fifth day
Method: C57 male mice were randomly divided into 4 groups, namely a blank control group, an irradiation group, a compound B (TFA) irradiation group, and an AMI irradiation group, respectively. The mode of administration for each group was an intraperitoneal injection, 30 min before irradiation. The dosage of administration was 517 mpk, and the abdominal irradiation dose was 16 Gy. On the fifth day, the small intestine tissue was taken for HE staining.

[9] = Example 2 group F: edaravone 3 mg/kg i.v. before reperfusion
[10] = Example 2 group G: amifostine 100 mg/kg i.p. 5 min before reperfusion
[11] = amifostine 200 mg/kg i.p. 30 min prior to cisplatin 5 mg/kg i.p.

## O=[N+]([O-])O[C@@H]1CO[C@H]2[C@@H]1OC[C@@H]2O [Isosorbide mononitrate injection, Isosorbide mononitrate, reference compound]
[1]; compared with model group
  Improvement rate (%) of LDH: 22.4%
[1]; serum, x ± s, n = 10
  LDH: 1472.7 ± 454.5 U/L
[2]; compared with model group
  Improvement rate (%) of myocardial infarction range: 25.5%
[2]; x ± s, n = 10
  Infarction range (%): 30.1 ± 6.7 %

## [NH2][Pt]([NH2])([Cl])[Cl] [CDDP, cisplatin, reference compound]
[3]; cisplatin alone 5 mg/kg i.p.
  Creatinine: 58.6 µmol/L and 54.1 µmol/L and 78 µmol/L
  Urea nitrogen: 18.70 mmol/L and 7.81 mmol/L and 12.9 mmol/L
[4]; cisplatin alone 5 mg/kg i.p.
  Change in body weight: the body weight dropped significantly

## CC1=NN(c2ccccc2)C(=O)C1 [edaravone, reference compound]
[5]; [9]
  % Improvement of cerebral infarction area: 58.85% and 58.95%
  Cerebral infarction area: 0 mm^3 (2×) and 10.31 mm^3 and 45.35 mm^3 and 220.66 mm^3 and 17.11 mm^3
[6]; [9]
  % Behavioral improvement: 46.99%
  Neurological function score After modeling: 1 (4×) and 2 and 3

## NCCCNCCSP(=O)(O)O [amifostine, reference compound]
[7]
  Inflammatory cell infiltration / radiation pneumonitis in lung (HE staining): could partially relieve the inflammatory cell infiltration and reduce the occurrence of radiation pneumonitis
[5]; [10]
  % Improvement of cerebral infarction area: 23.24%
  Cerebral infarction area: 58.88 mm^3 and 20.71 mm^3 and 0 mm^3 and 244.96 mm^3 and 204.11 mm^3 and 20.31 mm^3
[6]; [10]
  % Behavioral improvement: 29.32%
  Neurological function score After modeling: 2 (2×) and 1 (2×) and 3 (2×)
[3]; 30 min prior to cisplatin 5 mg/kg i.p.: compound B 200 mg/kg i.p., compound A 800 mg/kg p.o., amifostine 200 mg/kg i.p., day 5
  Effect on cisplatin-induced increase of blood creatinine and urea nitrogen (in words): significantly reduce the increased blood creatinine and urea nitrogen levels
[3]; [11]
  Creatinine: 19.8 µmol/L and 38.9 µmol/L and 21.9 µmol/L
  Urea nitrogen: 5.51 mmol/L and 5.34 mmol/L and 5.49 mmol/L
[8]
  Changes in the intestinal villi structure (HE staining): milder than that in the irradiation group
[4]; 30 min prior to cisplatin 5 mg/kg i.p.: compound B 200 mg/kg i.p., compound A 800 mg/kg p.o., amifostine 200 mg/kg i.p., weighed daily
  Change in body weight of cisplatin-induced SD rats: the degree of decrease was significantly better than that of the cisplatin group
